Results published in US11919902B2, “Aryl-bipyridine amine derivatives as phosphatidylinositol phosphate kinase inhibitors” (HiberCell, Inc., priority 2017, dated 2024).

Assays:
[1] = molecular target: T1, PIP4K2A (full length protein, SignalChem) (Homo sapiens, UniProt P48426); test: Kinase Assay PIP4K2 A (Sprint); ADP-Glo biochemical assay; conditions: Table 2; compounds listed under IC50 range headings
T1 construct: 4 nM PIP4K2A (full length protein, SignalChem); purchased SignalChem
T1 sequence (P48426 1-406): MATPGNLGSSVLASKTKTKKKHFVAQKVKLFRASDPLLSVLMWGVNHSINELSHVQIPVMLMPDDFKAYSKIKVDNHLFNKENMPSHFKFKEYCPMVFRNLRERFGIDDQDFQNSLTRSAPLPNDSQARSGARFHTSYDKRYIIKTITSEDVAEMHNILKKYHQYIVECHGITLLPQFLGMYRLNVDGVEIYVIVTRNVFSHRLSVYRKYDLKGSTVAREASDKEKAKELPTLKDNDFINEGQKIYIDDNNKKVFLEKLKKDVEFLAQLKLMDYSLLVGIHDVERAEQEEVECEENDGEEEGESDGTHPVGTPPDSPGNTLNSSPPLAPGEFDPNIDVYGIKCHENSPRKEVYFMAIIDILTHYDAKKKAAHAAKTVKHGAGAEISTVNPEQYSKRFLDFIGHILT
Outline: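 ADP-Glo luminescence detected ADP after a 1 h RT reaction started with 60 μM ATP solution. Before that, full-length PIP4K2A (4 nM in mix) with 100 μM PI(5)P diC8 was pre-incubated 15 min with compounds in MOPS buffer pH 7.2, 25 mM MgCl2, 0.005% Tween 20. IC50 derived from % inhibition relative to DMSO over 10 three-fold concentrations.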

GST tagged PIP4KtypeIIA = molecular target: T2, GST tagged PIP4KtypeIIA (Homo sapiens, UniProt P48426); test: ADP-glo kinase assay PIP4K 2A (PIP4KtypeIIA inhibition assay); assay type: biochemical; conditions: Table 3; compounds listed under IC50 range headings; 10 uM ATP, 0.5 nM PIP4KIIA
T2 construct: made in house; host or cells: E. coli
T2 sequence (P48426 1-406): T1 sequence (P48426 1-406)
Outline: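 Read-out was ADP-Glo luminescence converted to μM ADP, with IC50 plotted as % of no-inhibitor activity against log concentration. Reactions contained 10 μM ATP, 80 μM PI5P with DOPE carrier, and 0.5 nM GST-tagged PIP4KIIA (E. coli-expressed) in pH 7.3 HEPES/MgCl2 buffer with 5% DMSO. Enzyme and compound (≤4.8 μM) were preincubated 1 h at 27 °C before the 1 h reaction.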

GST tagged PIP4KtypeIIB = molecular target: T3, GST tagged PIP4KtypeIIB (Homo sapiens, UniProt P78356); test: Trans-FI P kinase assay PIP4K2B (PIP4KtypeIIB inhibition assay); assay type: biochemical; conditions: Table 4; compounds listed under IC50 range headings; 100 uM GTP, 5 nM PIP4KIIB; read-out: Trans-FI P kinase assays: PIP4K2B IC50
T3 construct: made in house; host or cells: E. coli
T3 sequence (P78356 1-416): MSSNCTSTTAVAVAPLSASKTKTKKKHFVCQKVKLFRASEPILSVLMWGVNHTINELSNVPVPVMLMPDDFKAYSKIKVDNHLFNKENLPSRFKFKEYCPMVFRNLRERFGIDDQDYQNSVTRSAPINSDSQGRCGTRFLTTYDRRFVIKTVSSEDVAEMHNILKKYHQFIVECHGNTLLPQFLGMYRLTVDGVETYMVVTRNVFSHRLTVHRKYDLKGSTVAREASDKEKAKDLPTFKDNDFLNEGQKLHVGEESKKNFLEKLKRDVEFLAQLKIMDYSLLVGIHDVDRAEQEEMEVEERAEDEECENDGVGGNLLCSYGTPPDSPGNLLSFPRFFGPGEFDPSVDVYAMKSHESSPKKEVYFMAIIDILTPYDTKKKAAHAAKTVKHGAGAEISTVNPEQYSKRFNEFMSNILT
Outline: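 Transcreener FI fluorescence, converted to GDP by calibration, tracked product from 5 nM E. coli-expressed GST-PIP4KIIB acting on 80 uM PI5P (DOPE carrier) with 100 uM GTP. Compound (top 4.8 uM final, 5% DMSO) was preincubated 1 h at 27 C before the 2 h reaction; IC50 fitted from residual activity.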

SMILES	IC50 [1]	IC50 (GST tagged PIP4KtypeIIA)	IC50 (GST tagged PIP4KtypeIIB)
Nc1ncc(-c2ccnc3c2cc2n3CCN(CC3CC3)C2=O)cc1-c1ccc(N2CCCC2=O)cc1 [Example 88, 4-(6-amino-5-(4-(2-oxopyrrolidin-1-yl)phenyl)pyridin-3-yl)-7-(cyclopropylmethyl)-8,9-dihydropyrido[3′,2′:4,5]pyrrolo[1,2-a]pyrazin-6(7H)-one]	5 to 100 nM	10 to 100 nM	1 to 10 nM
Nc1ncc(-c2ccnc3oc(C(=O)NCC4CC4)cc23)cc1-c1ccc(N2CCCC2=O)cc1 [Example 89, 4-(6-amino-5-(4-(2-oxopyrrolidin-1-yl)phenyl)pyridin-3-yl)-N-(cyclopropylmethyl)furo[2,3-b]pyridine-2-carboxamide]	1 to 5 nM	1 to 10 nM	1 to 10 nM
COCCNC(=O)c1cc2c(-c3cnc(N)c(-c4ccc(N5CCCC5=O)cc4)c3)ccnc2o1 [Example 90, 4-(6-amino-5-(4-(2-oxopyrrolidin-1-yl)phenyl)pyridin-3-yl)-N-(2-methoxyethyl)furo[2,3-b]pyridine-2-carboxamide]	5 to 100 nM	10 to 100 nM	1 to 10 nM
Cn1cc(-c2cnc(N)c(-c3ccc(N4CCCC4=O)cc3)c2)c2cc(N3CCCC3=O)cnc21 [Example 91, 1-(4-(2-amino-5-(1-methyl-5-(2-oxopyrrolidin-1-yl)-1H-pyrrolo[2,3-b]pyridin-3-yl)pyridin-3-yl)phenyl)pyrrolidin-2-one]	5 to 100 nM	100 to 1000 nM	10 to 100 nM
Cn1ncc2c(-c3cnc(N)c(-c4ccc(N5CCCC5=O)cc4)c3)cn(CC3CCOCC3)c(=O)c21 [Example 92, 4-(6-amino-5-(4-(2-oxopyrrolidin-1-yl)phenyl)pyridin-3-yl)-1-methyl-6-((tetrahydro-2H-pyran-4-yl)methyl)-1,6-dihydro-7H-pyrazolo[3,4-c]pyridin-7-one]	5 to 100 nM	10 to 100 nM	10 to 100 nM
CN(C)C(=O)c1ccc(-c2cc(-c3ccnc4cc(C#N)ccc34)cnc2N)nc1 [Example 109, 2′-amino-5′-(7-cyanoquinolin-4-yl)-N,N-dimethyl-[2,3′-bipyridine]-5-carboxamide]	1000 to 2500 nM	2500 to 5000 nM	1000 to 2500 nM
CN(C)C(=O)c1ccc(-c2cc(-c3ccnc4cc(N(C)C)ccc34)cnc2N)nc1 [Example 110, 2′-amino-5′-(7-(dimethylamino)quinolin-4-yl)-N,N-dimethyl-[2,3′-bipyridine]-5-carboxamide]	100 to 1000 nM	100 to 1000 nM	100 to 1000 nM
CN(C)C(=O)c1ccc(-c2cc(-c3ccnc4ncccc34)cnc2N)nc1 [Example 111, 2′-amino-N,N-dimethyl-5′-(1,8-naphthyridin-4-yl)-[2,3′-bipyridine]-5-carboxamide]	100 to 1000 nM	100 to 1000 nM	100 to 1000 nM
CN(C)C(=O)c1ccc(-c2cc(-c3ccnc4[nH]c(=O)[nH]c34)cnc2N)nc1 [Example 113, 2′-amino-N,N-dimethyl-5′-(2-oxo-2,3-dihydro-1H-imidazo[4,5-b]pyridin-7-yl)-[2,3′-bipyridine]-5-carboxamide]	5 to 100 nM	100 to 1000 nM	100 to 1000 nM
CN(C)C(=O)c1ccc(-c2cc(-c3ccnc4cccc(C#N)c34)cnc2N)nc1 [Example 118, 2′-amino-5′-(5-cyanoquinolin-4-yl)-N,N-dimethyl-[2,3′-bipyridine]-5-carboxamide]	< 5000 nM	> 5000 nM	> 5000 nM
CN(C)C(=O)c1ccc(-c2cc(-c3cccnc3N)cnc2N)nc1 [Example 120, 2′,2″-diamino-N,N-dimethyl-[2,3′:5′,3″-terpyridine]-5-carboxamide]	< 5000 nM	> 5000 nM	> 5000 nM
CN(C)C(=O)c1ccc(-c2cc(-c3cnc4c(c3)c(-c3cccnc3)nn4C)cnc2N)nc1 [Example 123, 2′-amino-N,N-dimethyl-5′-(1-methyl-3-(pyridin-3-yl)-1H-pyrazolo[3,4-b]pyridin-5-yl)-[2,3′-bipyridine]-5-carboxamide]	100 to 1000 nM	1000 to 2500 nM	> 5000 nM
CN(C)C(=O)c1ccc(-c2cc(-c3cnc4c(c3)c(-c3cncnc3)nn4C)cnc2N)nc1 [Example 124, 2′-amino-N,N-dimethyl-5′-(1-methyl-3-(pyrimidin-5-yl)-1H-pyrazolo[3,4-b]pyridin-5-yl)-[2,3′-bipyridine]-5-carboxamide]	1000 to 2500 nM	> 5000 nM	> 5000 nM
CN(C)C(=O)c1ccc(-c2cc(-c3cnc4c(c3)c(-c3cncs3)cn4C)cnc2N)nc1 [Example 125, 2′-amino-N,N-dimethyl-5′-(1-methyl-3-(thiazol-5-yl)-1H-pyrrolo[2,3-b]pyridin-5-yl)-[2,3′-bipyridine]-5-carboxamide]	100 to 1000 nM	1 to 10 nM	2500 to 5000 nM
COC(=O)c1cc2c(-c3cnc(N)c(-c4ccc(C(=O)N(C)C)cn4)c3)ccnc2[nH]1 [Example 126, methyl 4-(2′-amino-5-(dimethylcarbamoyl)-[2,3′-bipyridin]-5′-yl)-1H-pyrrolo[2,3-b]pyridine-2-carboxylate]	5 to 100 nM	10 to 100 nM	10 to 100 nM
CN(C)C(=O)c1ccc(-c2cc(-c3ccnc4[nH]c(C(=O)N(C)C)cc34)cnc2N)nc1 [Example 127, 4-(2′-amino-5-(dimethylcarbamoyl)-[2,3′-bipyridin]-5′-yl)-N,N-dimethyl-1H-pyrrolo[2,3-b]pyridine-2-carboxamide]	5 to 100 nM	100 to 1000 nM	10 to 100 nM
CN(C)C(=O)c1ccc(-c2cc(-c3ccnc4[nH]c(C(=O)N5CCOCC5)cc34)cnc2N)nc1 [Example 128, 2′-amino-N,N-dimethyl-5′-(2-(morpholine-4-carbonyl)-1H-pyrrolo[2,3-b]pyridin-4-yl)-[2,3′-bipyridine]-5-carboxamide]	100 to 1000 nM	1000 to 2500 nM	100 to 1000 nM
CN(C)C(=O)c1ccc(-c2cc(-c3ccnc4[nH]c(C(=O)N5CC(O)C5)cc34)cnc2N)nc1 [Example 129, 2′-amino-5′-(2-(3-hydroxyazetidine-1-carbonyl)-1H-pyrrolo[2,3-b]pyridin-4-yl)-N,N-dimethyl-[2,3′-bipyridine]-5-carboxamide]	100 to 1000 nM	100 to 1000 nM	100 to 1000 nM
CN(C)C(=O)c1ccc(-c2cc(-c3ccnc4[nH]c(C(=O)N5CC(C(N)=O)C5)cc34)cnc2N)nc1 [Example 130, 2′-amino-5′-(2-(3-carbamoylazetidine-1-carbonyl)-1H-pyrrolo[2,3-b]pyridin-4-yl)-N,N-dimethyl-[2,3′-bipyridine]-5-carboxamide]	100 to 1000 nM	100 to 1000 nM	100 to 1000 nM
CC(C)CNC(=O)c1cc2c(-c3cnc(N)c(-c4ccc(C(=O)N(C)C)cn4)c3)ccnc2[nH]1 [Example 131, 4-(2′-amino-5-(dimethylcarbamoyl)-[2,3′-bipyridin]-5′-yl)-N-isobutyl-1H-pyrrolo[2,3-b]pyridine-2-carboxamide]	100 to 1000 nM	100 to 1000 nM	10 to 100 nM
COCCNC(=O)c1cc2c(-c3cnc(N)c(-c4ccc(C(=O)N(C)C)cn4)c3)ccnc2[nH]1 [Example 132, 4-(2′-amino-5-(dimethylcarbamoyl)-[2,3′-bipyridin]-5′-yl)-N-(2-methoxyethyl)-1H-pyrrolo[2,3-b]pyridine-2-carboxamide]	100 to 1000 nM	100 to 1000 nM	10 to 100 nM
CN(C)C(=O)c1ccc(-c2cc(-c3ccnc4[nH]c(C(=O)NCc5ccccc5)cc34)cnc2N)nc1 [Example 134, 4-(2′-amino-5-(dimethylcarbamoyl)-[2,3′-bipyridin]-5′-yl)-N-benzyl-1H-pyrrolo[2,3-b]pyridine-2-carboxamide]	5 to 100 nM	100 to 1000 nM	10 to 100 nM
